The source of these data is patent US9993462B2, “Hydantoin derivative-containing pharmaceutical composition” (Chugai Seiyaku Kabushiki Kaisha, priority 2014, dated 2018).

Series [1] relates to TPTX rat. The series is described as follows: Calcemic action in the TPTX rat model. The settings on record: TPTX rats, 30 mg/kg oral; for change of serum Ca concentration from the Pre-value (in words): up to 24 hours after administration. In kind it is in vivo. The method, then: Four-week old female Crl:CD(SD) rats were obtained from Charles River Japan (Atsugi Breeding Center), and were acclimated to standard laboratory conditions of 20-26° C. and 35-75% humidity for one week. The rats were given tap water and were fed ad libitum with standard rodent chow (CE-2) (CLEA Japan, Inc.) containing 1.1% calcium, 1.0% phosphoric acid, and 250 IU/100 g of vitamin D3.
TPTX was performed on five-week old rats. Some of the individuals were subjected to sham operation (Sham). Individuals whose serum Ca concentration was less than 8 mg/dL on four days after the operation were selected for use as TPTX rats. On five days after the operation, the rats were assigned to eight TPTX groups and one Sham group (n=5, each group) based on their body weight and serum Ca concentration measured on four days after the operation. The solvent alone was orally administered to the Sham group and the TPTX-Vehicle group at a volume of 10 mL/kg. Each test article was orally administered individually to each TPTX test article group by dissolving it in a solvent at a dose of 30 mg/10 mL/kg. The solvent composition was 10% dimethylsulfoxide (Wako Pure Chemical Industries, Ltd.), 10% Cremophor EL (Sigma-Aldrich Japan LLC), 20% hydroxypropyl-β-cyclodextrin (Nihon Shokuhin Kako Co., Ltd.), glycine (Wako Pure Chemical Industries, Ltd.); and the pH was adjusted to 10. Immediately before administration of each sample, Pre-blood collection was performed, and blood collection was carried out at 2, 6, 10, and 24 hours after administration to measure the serum Ca concentration. Each blood collection was carried out from the jugular vein under isoflurane inhalation anesthesia.
Serum Ca measurement: Serum obtained by centrifugation from the collected blood was measured by using an automatic analyzer TBA-120FR (Toshiba Medical Systems Corporation).
For statistical analysis of the animal studies, data are shown as mean±standard error (SE). Statistical analysis were performed by unpaired test of the SAS Preclinical Package (Ver. 5.00.010720, SAS Institute Japan, Tokyo, Japan).

For series [2], the target named is T1, human PTH1R (Homo sapiens, UniProt Q03431).
T1 construct: expressed in transfected cells; host or cells: HKRK-B7 (LLC-PK1 porcine kidney cells stably expressing human PTH1R)
T1 sequence (Q03431 27-593): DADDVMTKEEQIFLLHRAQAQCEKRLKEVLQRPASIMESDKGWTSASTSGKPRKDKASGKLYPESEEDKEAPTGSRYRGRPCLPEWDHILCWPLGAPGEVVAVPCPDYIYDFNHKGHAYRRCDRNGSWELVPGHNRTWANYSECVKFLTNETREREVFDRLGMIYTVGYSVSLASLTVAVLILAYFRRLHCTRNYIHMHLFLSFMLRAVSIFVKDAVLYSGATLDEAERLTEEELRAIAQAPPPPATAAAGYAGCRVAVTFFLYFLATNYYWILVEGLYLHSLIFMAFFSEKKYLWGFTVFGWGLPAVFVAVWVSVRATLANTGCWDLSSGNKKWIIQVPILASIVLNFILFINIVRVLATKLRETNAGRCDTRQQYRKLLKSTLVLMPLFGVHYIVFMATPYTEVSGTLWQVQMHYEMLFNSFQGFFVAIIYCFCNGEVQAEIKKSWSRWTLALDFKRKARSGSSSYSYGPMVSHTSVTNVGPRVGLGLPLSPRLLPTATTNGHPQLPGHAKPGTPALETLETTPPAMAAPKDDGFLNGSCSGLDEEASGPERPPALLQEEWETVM
The series is described as follows: In vitro cAMP signal activity via the human PTH1R (HKRK-B7 cells). The format is cell-based. The settings on record: concentration at 20% cAMP signaling activity, human PTH(1-34) at 100 nM = 100%. The method, then:
Human PTH(1-34) and calcitonin were purchased from Peptide Institute, Inc. (Osaka, Japan), dissolved in 10 mM acetic acid to 1 mM and stored in a −80° C. freezer.
Cells were cultured in Dulbecco's modified Eagle's medium (DMEM) supplemented with 10% fetal bovine serum (Hyclone), 100 units/ml penicillin G and 100 μg/ml streptomycin sulfate (Invitrogen Corp) at 37° C. in a humidified atmosphere containing 5% CO2.
cAMP signal transduction analysis utilized LLC-PK1 cells not expressing the PTH1R, and HKRK-B7 cells, that is, LLC-PK1 cells overexpressing the human PTH1R at 9.5×10^5 receptors/cell (Takasu et al., J. Bone. Miner. Res. 14:11-20, 1999).
HKRK-B7 or LLC-PK1 cells were seeded into a 96-well plate at 1×10^5 cells/well and incubated overnight. On the following day, 50 μl of cAMP assay buffer (DMEM, 2 mM IBMX, 0.2 mg/ml bovine serum albumin, 35 mM Hepes-NaOH, pH 7.4) containing human PTH(1-34) or each compound was added and the plate was placed in a 37° C. incubator. The cells were incubated for 20 minutes. After removing the medium, the cells were washed with 100 μl of cAMP assay buffer once. The plate was placed on dry ice powder to freeze the cells and then removed from the dry ice. The cells were lysed with 40 μl of 50 mM HCl and frozen again on dry ice. The amount of intracellular cAMP produced was measured using a commercially available cAMP EIA kit (Biotrack cAMP EIA system, GE health care).
Analyses were performed using a variable gradient S-shaped dose-response curve equation.

The target in series [3] is T2, rat PTH1R (Rattus norvegicus, UniProt P25961).
T2 construct: expressed in transfected cells
T2 sequence (P25961 27-591): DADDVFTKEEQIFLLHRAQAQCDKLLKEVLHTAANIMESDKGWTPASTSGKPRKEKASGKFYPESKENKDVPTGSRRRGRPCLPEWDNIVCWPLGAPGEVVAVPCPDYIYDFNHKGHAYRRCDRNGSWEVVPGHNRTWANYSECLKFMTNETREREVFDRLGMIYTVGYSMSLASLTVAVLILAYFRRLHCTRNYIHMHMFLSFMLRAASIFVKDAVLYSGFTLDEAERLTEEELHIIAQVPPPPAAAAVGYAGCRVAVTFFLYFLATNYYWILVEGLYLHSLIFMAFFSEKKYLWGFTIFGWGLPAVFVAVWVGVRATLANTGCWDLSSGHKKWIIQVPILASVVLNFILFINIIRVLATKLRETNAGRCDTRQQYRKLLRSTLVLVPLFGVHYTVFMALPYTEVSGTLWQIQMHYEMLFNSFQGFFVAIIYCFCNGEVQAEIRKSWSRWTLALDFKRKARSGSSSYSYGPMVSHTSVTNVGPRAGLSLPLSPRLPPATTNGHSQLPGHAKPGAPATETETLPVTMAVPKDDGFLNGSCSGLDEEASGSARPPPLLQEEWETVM
The series is described as follows: In vitro cAMP signaling activity via the rat PTH1R (LLC-PK46_RATO_PTH1R cells). In kind it is cell-based. The conditions noted are these: LLC-PK46_RATO_PTH1R cells overexpressing rat PTH1R. An excerpt: Instead of HKRK-B7 cells, LLC-PK46_RATO_PTH1R cells overexpressing rat PTH1R, which were established at Chugai Pharmaceutical, were used to take measurements in a similar manner to Reference Test Example 1.

For series [4], the system named is rat hepatocyte. The series is described as follows: Metabolic stability using rat hepatocyte. In kind it is in vitro ADME. How it is done: Liver cells were prepared from the liver of rats (SD, female) by a collagenase perfusion method. A compound of the Reference Examples or a Comparative Example was added, and this was incubated at 37° C. for a specified amount of time, followed by addition of a reaction-stopping solution. The concentration of the parent compound at each reaction time was measured using LC/MS/MS, and inherent clearance (μL/10^6 cells/min) was calculated from the slope of the reaction time versus residual rate.
• Cell concentration: 1×10^6 cells/mL • Compound concentration: 1 μM • Medium: Williams' medium E • Reaction time: 0, 15, 30, 60, 120, and 240 minutes • Reaction-stopping solution: acetonitrile/2-propanol (4/6, v/v)

A word on the EC20: it is the point of the concentration-response curve where the effect stands at 20%. Low values mean greater potency, high ones weaker potency. Consider `Cc1cc(N2C(=O)CNC2=O)ccc1CCS(=O)(=O)N1CCC2(CC1)N=C(c1cccc(OC(F)(F)F)c1)NC2=O` [Comparative Example 1, reference compound], for which, in series [1], the “achievement of the therapeutic target range of serum Ca concentration of 7.6 to 8.8 mg/dL” value is “could not be achieved” and the “change of serum Ca concentration from the Pre-value (in words)” value is recorded as “smaller positive changes from the Pre-value”. This compound also gave an EC20 in series [2] of 1500 nM. In series [3], this compound yielded a concentration for an effect of 20% (EC20) of 800 nM.

In the case of `Cc1cc(N2C(=O)NC(=O)C23COC3)cc(C)c1CCS(=O)(=O)N1CCC2(CC1)N=C(c1ccc(OC(F)(F)F)cc1)NC2=O` [Compound 10, 5-(3,5-dimethyl-4-(2-((4-oxo-2-(4-(trifluoromethoxy)phenyl)-1,3,8-triazaspiro[4.5]deca-1-en-8-yl)sulfonyl)ethyl)phenyl)-2-oxa-5,7-diazaspiro[3.4]octane-6,8-dione], the “rat hepatocyte metabolic stability compared to Comparative Examples 1, 2, 3, 5, and 6 (in words)” value in series [4] was “increased”. Further, the EC20 in series [2] came to 5000 nM; in series [3], 3000 nM.

Regarding `Cc1cc(N2C(=O)NC(=O)C23CCCC3)cc(C)c1CCS(=O)(=O)N1CCC2(CC1)N=C(c1ccc(OC(F)(F)F)cc1)NC2=O` [Compound 8, 1-(3,5-dimethyl-4-(2-((4-oxo-2-(4-(trifluoromethoxy)phenyl)-1,3,8-triazaspiro[4.5]deca-1-en-8-yl)sulfonyl)ethyl)phenyl)-1,3-diazaspiro[4.4]nonane-2,4-dione], in series [1], the “achievement of the therapeutic target range of serum Ca concentration of 7.6 to 8.8 mg/dL” value was “achieved the therapeutic target range” and the “change of serum Ca concentration from the Pre-value (in words)” value was “large positive changes from the Pre-value”. Also, the “rat hepatocyte metabolic stability compared to Comparative Examples 1, 2, 3, 5, and 6 (in words)” value in series [4] is on record as “increased”. This compound also yielded an EC20 in series [3] of 400 nM.

For the compound `Cc1cc(N2C(=O)NC(=O)C23CC3)cc(C)c1CCS(=O)(=O)N1CCC2(CC1)N=C(c1ccc(OC(F)(F)F)cc1)NC2=O` [Compound 11, 4-(3,5-dimethyl-4-(2-((4-oxo-2-(4-(trifluoromethoxy)phenyl)-1,3,8-triazaspiro[4.5]deca-1-en-8-yl)sulfonyl)ethyl)phenyl)-4,6-diazaspiro[2.4]heptane-5,7-dione], the “rat hepatocyte metabolic stability compared to Comparative Examples 1, 2, 3, 5, and 6 (in words)” value in series [4] is “increased”. Also, the EC20 worked out at 1500 nM in series [2] and 800 nM in series [3].
